Test system: HSV-1 (SC16)
Test: Cutaneous HSV-1 infection of the ear pinna in mice immunosuppressed with Cyclosporin A (second experiment)
Format: in vivo
Settings: BALB/c mice immunosupressed with Cyclosporin A (second experiment) compared with immunocompetant mice (first experiment); oral antiviral treatment
Method: A cutaneous infection was established by inoculation of the ear pinnae of mice with HSV-1 (SC16) and the effects of oral famciclovir and valaciclovir on the latent virus infection was investigated.
BALB/c female mice (Bantin and Kingman, Kingston, Hull, UK) were purchased at 3 to 4 weeks old and inoculated one week later. Virus suspension (10 ul) containing 5×10^4 p.f.u. were inoculated into the skin of the left ear pinna. Skin thickness was measured daily in individual mice by means of an Engineers' micrometer screw gauge. (ref. Nash et al, 1980, J. Gen. Virol. 48, 351-357). Mice were killed daily and tissues removed for virus assays. Other mice were […]. The trigeminal ganglia and cervical dorsal root ganglia were removed and co-cultivated. Those cultures showing virus replication were recorded as positive.
In a first experiment, groups of immunocompetant mice were untreated (control), antiviral treatment was initiated on days 1, 2, 3, 4 or 5 post-infection (p.i.) and ceased on day 10 p.i.. The compounds were administered ad libitum in the drinking water, at 1 mg/ml (approximately 100 mg/kg/day).
In a second experiment, mice were immunosupressed with Cyclosporin A (CyA) from day-2 to day=10 (day 0 being the day of infection). […]

Compound: CC(C)[C@H](N)C(=O)OCCOCn1cnc2c(=O)[nH]c(N)nc21 [valaciclovir]
- effect on virus replication and disease: significantly greater effect

Compound: CC(=O)OCC(CCn1cnc2cnc(N)nc21)COC(C)=O [famciclovir]
- effect on virus replication and disease: significantly greater effect
